Source: patent US20240254129A1, “HETEROCYCLIC COMPOUNDS AND USES THEREOF” (Kumquat Biosciences Inc., priority 2021, published 2024)

How the values were obtained:
[1] = target: GST-tagged K-Ras mutant / His-tagged hSOS1 (Homo sapiens, UniProt P01116); experiment: HTRF assay, K-Ras mutant / SOS1 interaction; type: binding; settings: compound nos. 102-196, general methodology of example 5; read-out: IC50 against mutant Kras
Description: (§1) This assay can be also used to assess a selective inhibition of a mutant Ras protein relative to a wildtype, or relative to a different mutant Ras protein. For example, the equilibrium interaction of wildtype Kras or K-Ras mutant (e.g., wildtype or a mutant thereof including those mentioned in Example 6) with SOS1 (e.g., hSOS1) can be assessed as a proxy or an indication for a subject compound's ability to bind and inhibit Ras protein. HTRF assay detects from (i) a fluorescence resonance energy transfer (FRET) donor (e.g., antiGST-Europium) that is bound to GST-tagged K-Ras mutant to (ii) a FRET acceptor (e.g., anti-6His-XL665) bound to a His-tagged hSOS1.
(§2) The assay buffer can contain ˜5 mM HEPES pH 7.4, ˜150 mM NaCl, ˜ 1 mM DTT, 0.05% BSA and 0.0025% (v/v) Igepal. A Ras working solution is prepared in an assay buffer containing typically a suitable amount of the protein construct (e.g., GST-tagged K-Ras mutant) and the FRET donor (e.g., antiGST-Eu(K) from Cisbio, France). A SOS1 working solution is prepared in an assay buffer containing suitable amount of the protein construct (e.g., His-hSOS1) and the FRET acceptor (e.g., anti-6His-XL665 from Cisbio, France). A suitable amount of the protein construct will depend on the range of activity or range of IC50 values being detected or under investigation. For detecting IC50 within a range of 500 nM, the protein constructs of the same range of molarity can be utilized.
(§3) A fixed volume of DMSO with or without test compound is transferred into a 384-well plate. Ras working solution is added to all wells of the test plate. SOS1 working solution is added to all wells except for those that are subsequently filled the inhibitor control solution. Upon incubation for about 10 minutes or longer, the fluorescence is measured with a M1000Pro plate reader (Tecan) using HTRF detection (excitation 337 nm, emission 1: 620 nm, emission 2: 665 nm). Compounds are tested in duplicates at different concentrations (for example, 10 μM, 2.5 μM, 0.63 μM, 0.16 μM, 0.04 µM, 0.01 μM test compound). The ratiometric data (i.e., emission 2 divided by emission 1) is used to calculate IC50 values against Ras using GraphPad Prism (GraphPad software). Following this general procedure, samples were tested with or without a subject compound disclosed herein including compounds exemplified in Table 1 to assess their abilities to inhibit K-Ras signaling or their respective IC50 values against a given Ras protein (e.g., a given mutant K-Ras) of interest.

[2] = target: T1, wildtype Kras / hSOS1 (Homo sapiens, UniProt P01116); experiment: HTRF assay, wildtype Kras / SOS1 interaction; type: binding; settings: compound nos. 102-196, general methodology of example 5; read-out: IC50 against wildtype Kras
T1 construct: made in house; host or cells: E. coli BL21 (DE3)
Description: as §1, §2, §3

Sequence of GST-tagged K-Ras mutant / His-tagged hSOS1 (P01116 whole entry G12D, form open): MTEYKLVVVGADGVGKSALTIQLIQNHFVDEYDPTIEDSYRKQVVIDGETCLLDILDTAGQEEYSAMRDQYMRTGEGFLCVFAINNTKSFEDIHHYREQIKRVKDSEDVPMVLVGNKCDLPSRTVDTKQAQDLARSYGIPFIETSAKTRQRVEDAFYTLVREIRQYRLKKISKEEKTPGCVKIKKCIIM
T1 sequence (P01116 1-188 isoform P01116-2): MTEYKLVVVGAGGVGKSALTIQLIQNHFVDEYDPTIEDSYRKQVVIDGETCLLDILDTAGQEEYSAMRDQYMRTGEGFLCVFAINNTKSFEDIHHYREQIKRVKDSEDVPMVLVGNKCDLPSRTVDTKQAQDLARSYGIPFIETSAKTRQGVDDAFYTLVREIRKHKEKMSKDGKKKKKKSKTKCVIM

SMILES | IC50 [1] [nM] | IC50 [2] [nM]
Cc1nc2c(-c3c(Cl)cc4c(N5CCNCC(F)(F)C5)nc(OC[C@@H]5CCCN5C)nc4c3F)cccc2s1 [Compound 138, 4-(6-chloro-4-(6,6-difluoro-1,4-diazepan-1-yl)-8-fluoro-2-(((S)-1-methylpyrrolidin-2-yl)methoxy)quinazolin-7-yl)-2-methylbenzo[d]thiazole] | > 500 | > 500
Nc1nc2c(-c3c(Cl)cc4c(N5CCNCC(F)(F)C5)nc(OCc5ccccn5)nc4c3F)cccc2s1 [Compound 139, 4-(6-chloro-4-(6,6-difluoro-1,4-diazepan-1-yl)-8-fluoro-2-(pyridin-2-ylmethoxy)-quinazolin-7-yl)benzo[d]-thiazol-2-amine] | > 500 | > 500
CN1CCC[C@H]1COc1nc(N2CCN(S(C)(=O)=O)CC(F)(F)C2)c2cc(Cl)c(-c3cccc4sc(N)nc34)c(F)c2n1 [Compound 140, 4-(6-chloro-4-(6,6-difluoro-4-(methylsulfonyl)-1,4-diazepan-1-yl)-8-fluoro-2-(((S)-1-methylpyrrolidin-2-yl)methoxy)quinazolin-7-yl)-benzo[d]thiazol-2-amine] | > 500 | < 500
CN1CCC[C@H]1COc1nc(N2CCN(C(=O)CN)CC(F)(F)C2)c2cc(Cl)c(-c3cccc4sc(N)nc34)c(F)c2n1 [Compound 141, 2-amino-1-(4-(7-(2-amino-benzo[d]thiazol-4-yl)-6-chloro-8-fluoro-2-(((S)-1-methylpyrrolidin-2-yl)meth-oxy)quinazolin-4-yl)-6,6-difluoro-1,4-diazepan-1-yl)-ethan-1-one] | > 500 | < 500
CN1CCC[C@H]1COc1nc(N2CCNC(=O)CC2)c2cc(Cl)c(-c3cccc4sc(N)nc34)c(F)c2n1 [Compound 142, 1-(7-(2-aminobenzo[d]-thiazol-4-yl)-6-chloro-8-fluoro-2-(((S)-1-methyl-pyrrolidin-2-yl)methoxy)-quinazolin-4-yl)-1,4-diazepan-5-one] | < 500 | < 500
CN1CCC[C@H]1COc1nc(N2CCC3CNCC3C2)c2cc(Cl)c(-c3cccc4sc(N)nc34)c(F)c2n1 (stereo partly drawn) [Compound 143, 4-(6-chloro-8-fluoro-2-(((S)-1-methylpyrrolidin-2-yl)-methoxy)-4-(octahydro-5H-pyrrolo[3,4-c]pyridin-5-yl)-quinazolin-7-yl)benzo[d]-thiazol-2-amine] | > 500 | > 500
CN1CCC[C@H]1COc1nc(N2CC3CNCC3C2)c2cc(Cl)c(-c3cccc4sc(N)nc34)c(F)c2n1 (stereo partly drawn) [Compound 144, 4-(6-chloro-8-fluoro-4-(hexahydropyrrolo[3,4-c]-pyrrol-2(1H)-yl)-2-(((S)-1-methylpyrrolidin-2-yl)meth-oxy)quinazolin-7-yl)benzo-[d]thiazol-2-amine] | > 500 | > 500
Nc1nc2c(-c3c(Cl)cc4c(N5CCNCC(F)(F)C5)nc(Oc5cccnc5C5CC5)nc4c3F)cccc2s1 [Compound 145, 4-(6-chloro-2-((2-cycloprop-ylpyridin-3-yl)oxy)-4-(6,6-difluoro-1,4-diazepan-1-yl)-8-fluoroquinazolin-7-yl)-benzo[d]thiazol-2-amine] | > 500 | > 500
CN1C[C@H](F)C[C@H]1COc1nc(N2CCNCC(F)(F)C2)c2cc(Cl)c(-c3cccc4sc(N)nc34)c(F)c2n1 [Compound 146, 4-(6-chloro-4-(6,6-difluoro-1,4-diazepan-1-yl)-8-fluoro-2-(((2S,4R)-4-fluoro-1-methylpyrrolidin-2-yl)meth-oxy)quinazolin-7-yl)benzo-[d]thiazol-2-amine] | < 500 | < 500
CN1CCC[C@H]1COc1nc(N2CCCOCC2)c2cc(Cl)c(-c3ccc(F)c4sc(N)nc34)c(F)c2n1 [Compound 147, 4-(6-chloro-8-fluoro-2-(((S)-1-methylpyrrolidin-2-yl)-methoxy)-4-(1,4-oxazepan-4-yl)quinazolin-7-yl)-7-fluorobenzo[d]thiazol-2-amine] | < 500 | < 500
Nc1nc2c(-c3c(Cl)cc4c(N5CCCOCC5)nc(OCC56CCCN5CCC6)nc4c3F)ccc(F)c2s1 [Compound 148, 4-(6-chloro-8-fluoro-4-(1,4-oxazepan-4-yl)-2-((tetra-hydro-1H-pyrrolizin-7a(5H)-yl)methoxy)quinazolin-7-yl)-7-fluorobenzo[d]thiazol-2-amine] | < 500 | < 500
CN1CCC[C@H]1COc1nc(N2CCNCC(F)(F)C2)c2cc(Cl)c(-c3cccc4sc(NCC(F)(F)F)nc34)c(F)c2n1 [Compound 149, 4-(6-chloro-4-(6,6-difluoro-1,4-diazepan-1-yl)-8-fluoro-2-(((S)-1-methylpyrrolidin-2-yl)methoxy)quinazolin-7-yl)-N-(2,2,2-trifluoroethyl)-benzo[d]thiazol-2-amine] | > 500 | > 500
CN1CCC[C@H]1COc1nc(N2CCN(S(N)(=O)=O)CC(F)(F)C2)c2cc(Cl)c(-c3cccc4sc(N)nc34)c(F)c2n1 [Compound 150, 4-(7-(2-aminobenzo[d]-thiazol-4-yl)-6-chloro-8-fluoro-2-(((S)-1-methyl-pyrrolidin-2-yl)methoxy)-quinazolin-4-yl)-6,6-difluoro-1,4-diazepane-1-sulfonamide] | > 500 | < 500
Nc1nc2c(-c3c(Cl)cc4c(N5CCNCC(F)(F)C5)nc(OCC56CCCN5C(=O)CC6)nc4c3F)cccc2s1 (stereo not shown) [Compound 151, 7a-(((7-(2-aminobenzo[d]-thiazol-4-yl)-6-chloro-4-(6,6-difluoro-1,4-diazepan-1-yl)-8-fluoroquinazolin-2-yl)oxy)methyl)hexahydro-3H-pyrrolizin-3-one] | > 500 | > 500
CN1CCc2c(cccc2Oc2nc(N3CCNCC(F)(F)C3)c3cc(Cl)c(-c4cccc5sc(N)nc45)c(F)c3n2)C1 [Compound 153, 4-(6-chloro-4-(6,6-difluoro-1,4-diazepan-1-yl)-8-fluoro-2-((2-methyl-1,2,3,4-tetra-hydroisoquinolin-5-yl)oxy)-quinazolin-7-yl)benzo[d]-thiazol-2-amine] | > 500 | > 500
Nc1nc2c(-c3c(Cl)cc4c(N5CCCOCC5)nc(OC[C@@]56CCCN5C[C@H](F)C6)nc4c3F)ccc(F)c2s1 [Compound 154, 4-(6-chloro-8-fluoro-2-(((2R,7aS)-2-fluorotetra-hydro-1H-pyrrolizin-7a(5H)-yl)methoxy)-4-(1,4-oxazepan-4-yl)quin-azolin-7-yl)-7-fluoro-benzo[d]-thiazol-2-amine] | < 500 | < 500
CN1CCC[C@H]1COc1nc(N2CCNCC(F)(F)C2)c2cc(Cl)c(-c3cccc4sc(N)nc34)c(OCc3ccccn3)c2n1 [Compound 155, 4-(6-chloro-4-(6,6-difluoro-1,4-diazepan-1-yl)-2-(((S)-1-methylpyrrolidin-2-yl)-methoxy)-8-(pyridin-2-yl-methoxy)quinazolin-7-yl)-benzo[d]thiazol-2-amine] | > 500 | > 500
Nc1nc2c(-c3c(Cl)cc4c(N5CCOCC(O)C5)nc(OCC56CCCN5CCC6)nc4c3F)cccc2s1 (stereo not shown) [Compound 156, 4-(7-(2-aminobenzo[d]-thiazol-4-yl)-6-chloro-8-fluoro-2-((tetrahydro-1H-pyrrolizin-7a(5H)-yl)-methoxy)quinazolin-4-yl)-1,4-oxazepan-6-ol] | < 500 | < 500
Cc1cc2c(N3CCNCC(F)(F)C3)nc(OC[C@@H]3CCCN3C)nc2c(F)c1-c1cccc2sc(N)nc12 [Compound 157, 4-(4-(6,6-difluoro-1,4-diazepan-1-yl)-8-fluoro-6-methyl-2-(((S)-1-methyl-pyrrolidin-2-yl)methoxy)-quinazolin-7-yl)benzo[d]-thiazol-2-amine] | < 500 | < 500
CN1CCC[C@H]1COc1nc(N2CCNCC(F)(F)C2)c2cc(Cl)c(-c3cccc4oc(N)nc34)c(F)c2n1 [Compound 158, 4-(6-chloro-4-(6,6-difluoro-1,4-diazepan-1-yl)-8-fluoro-2-(((S)-1-methylpyrrolidin-2-yl)methoxy)quinazolin-7-yl)benzo[d]oxazol-2-amine] | < 500 | < 500
